# Entries after “also recorded” stand apart in the source; their conditions may differ.
# Columns and labels:
# [1] = test system: SH-SY5Y human neuroblastoma cells; assay: Neuroprotection against Aβ1-42-induced toxicity, MTT cell viability assay; type: cell-based; conditions: 50 μM compound, 20 μM Aβ1-42, 24 h, 37 °C
# Protocol: Neuroprotective activity assays against Aβ1-42-induced toxicity. From all compounds tested in the above presented assay, the pair 8 and 19 presented the strongest neuroprotective potential, with convincing proof on the importance of the aglycone for the desired neuroprotective effects against H2O2-induced cell injury. […] Here, the MTT assay was used once again to assess cell viability of SH-SY5Y cells treated with 20 μM of Aβ1-42, in the presence of 50 μM of each compound. Similar protocols have been used to screen candidates for AD therapy. Moreover, based on the existing evidence that in situ spontaneous fibrillization of Aβ1-42 in the incubation mixture is important in the triggering of neurotoxic effects, we added the Aβ1-42 peptide fragment dissolved in DMSO to the culture medium prior to incubation, together with each compound in study. […] Even though there is published evidence that undifferentiated SH-SY5Y cells are not as sensitive to Aβ1-42-induced neurite degeneration and apoptosis as differentiated ones, with 20 μM of Aβ1-42 we were able to observe a significant decrease in cellular MTT reduction capacity, corresponding to roughly half of the cell viability rates observed in the non-treated control.
# (§1) Neuroprotective assays in human neuroblastoma (SH-SY5Y) cells. […] Differences were considered significant when P < 0.05.
# [2] = test system: SH-SY5Y neuroblastoma cells; assay: Cytotoxic activity of compounds alone, MTT cell viability assay; conditions: 50 μM compound alone, 24 h, 37 °C, 0.5% DMSO, SH-SY5Y
# Protocol: Neuroprotective assays in human neuroblastoma (SH-SY5Y) cells. SH-SY5Y cells were grown in Dulbecco’s Modified Eagle Medium (DMEM, Gibco, Life Technologies) supplemented with 10% fetal bovine serum (FBS, Biochrom GmbH) and 1% Penicillin-Streptomycin (Gibco, Life Technologies) in a humidified incubator at 37 °C, 5% CO2. For the neuroprotective activity assay, undifferentiated SGSY-5Y cells were plated onto 96-well flat-bottomed microtiter plates at a density of 1 × 10^4 cells/well in DMEM supplemented with 2% FBS and preincubated for 24 h at 37 °C, 5% CO2. Compounds (stored as 10 mM solutions in DMSO at −20 °C) were then added to achieve a final concentration of 50 μM and, after 30 min, cells were incubated in the presence or absence of 20 μM Aβ protein fragment 1-42 (Sigma-Aldrich, dissolved in DMSO and stored in 2 mM aliquots at −20 °C) or 100 μM of H2O2 (Sigma-Aldrich, dissolved to 10 mM in 0.9% NaCl aqueous solution immediately prior to the assay) overnight at 37 °C, 5% CO2. […] The following morning, 20 μL of a 5 mg/mL solution of 3-(4,5-dimethylthiazol-2-yl)-2,5-diphenyltetrazolium bromide (MTT, Sigma-Aldrich) in PBS (Gibco, Life Technologies) was added to each well and the plates were further incubated for 4 h at 37 °C, followed by the addition of DMSO (200 μL) to each well in order to dissolve the resulting formazan crystals. After 2 h incubating at 37 °C, the optical density (OD) at 540 nm (with a 620 nm reference filter) was measured in an Amersham Biosciences Biotrak II Plate Reader. The percentage of MTT reduction was determined according to Equation (1). […] Differences between experimental conditions were compared for statistical significance by one-way ANOVA followed by a Tukey’s post-test, an analysis carried out using GraphPad Prism Software (LA Jolla, CA, USA). Differences were considered significant when P < 0.05. In order to exclude direct MTT reduction, compounds were also tested in (a) the absence of cells and (b) in the absence of both cells and culture medium, using the same experimental conditions described above. (2) MTT Reduction (% of Control)=[ODsample−ODmedium/ODcell control−ODmedium] × 100 […]
# Tabl e S2. Cytotoxic activity of each compound assessed in SH-SY5Y neuroblastoma cells via an MTT cell viability assay.a Comp ound Nr. MTT reduction (% control) p-va l u e vs . untreated cell control (unpai red t-t es t) […]
# a Cells were incubated for 24 h at 37 °C, in the presence (50 μM) or absence of each compound.
# [3] = LogD7.4 determination (octan-1-ol/phosphate buffer, LC-MS); type: physicochemical; conditions: octan-1-ol/phosphate buffer, pH 7.4, octan-1-ol/phosphate buffer pH 7.4, 25 °C; read-out: Log D7.4 (partition coefficient at pH 7.4)
# Protocol: LogD7.4 determination. The in-silico prediction tool ALOGPS [4] was used to estimate the octanol-water partition coefficients (log P) of the compounds. […] For each category, two different ratios (volume of octan-1-ol to volume of buffer) were defined as experimental parameters (Table 2).
# Equal amounts of phosphate buffer (0.1 M, pH 7.4) and octan-1-ol were mixed and shaken vigorously for 5 min to saturate the phases. The mixture was left until separation of the two phases, and the buffer was retrieved. Stock solutions of the test compounds were diluted with buffer to a concentration of 1 μM. For each compound, three determinations per octan-1-ol:buffer ratio were performed in different wells of a 96-well plate. The respective volumes of buffer-containing analyte (1 μM) were pipetted to the wells and covered by saturated octan-1-ol according to the chosen volume ratio. […] The aqueous phase was transferred to a 96-well plate for analysis by liquid chromatography-mass spectrometry (LCMS, see below).
# Results are presented as the mean ± SD of three independent experiments.
# LC-MS measurements. […] The system was controlled with the Agilent MassHunter Workstation Data Acquisition software (version B.01.04). The column used was an AtlantisR T3 C18 column (2.1 × 50 mm) with a 3 μm-particle size (Waters Corp., Milford, MA, USA). The mobile phase consisted of eluent A: 10 mM ammonium acetate, pH 5.0 in 95:5, H2O:MeCN; and eluent B: MeCN containing 0.1% formic acid. The flow rate was maintained at 0.6 mL/min. […] MS parameters such as fragmentor voltage, collision energy, and polarity were optimized individually for each drug, and the molecular ion was followed for each compound in the multiple reaction monitoring mode. The concentrations of the analytes were quantified by the Agilent Mass Hunter Quantitative Analysis software (version B.01.04).
# [4] = test system: SH-SY5Y human neuroblastoma cells; assay: Neuroprotection against H2O2-induced toxicity, MTT cell viability assay; type: cell-based; conditions: 50 μM compound, 100 μM H2O2, 24 h, 37 °C
# Text: Neuroprotective activity assays against H2O2-induced toxicity. On the basis of previously described protocols, the flavones and analogues herein synthesized were screened for their neuroprotective effects against H2O2-induced oxidative stress and neuronal damage in SH-SY5Y human neuroblastoma cells by means of a thiazolyl blue tetrazolium bromide (MTT) reduction-based cell viability assay.
# as §1
smiles,measurement,setting,value
"O=c1cc(-c2ccc(N3CCOCC3)cc2)oc2c([C@@H]3O[C@H](CO)[C@@H](O)[C@H](O)[C@H]3O)c(O)cc(O)c12 [Compound 19, 8-(β-D-Glucopyranosyl)-5,7-dihydroxy-4′-(morpholin-4-yl)flavone]",Neuroprotective effect against Aβ1-42-induced toxicity (MTT cell viability),[1],the result with the highest significance when compared to controls; also recorded: the result with the highest significance when compared to the controls
same,Neuroprotective effect against Aβ1-42-induced toxicity (MTT cell viability),[1]; listed as 37,fully rescued
same,MTT reduction (% control),[2],138.5 ± 3.6%
same,logD,[3],1.8 ± 0.2
same,Neuroprotective effect against H2O2-induced toxicity (MTT cell viability),[4],able to produce statistically significant differences when compared to H2O2 controls
same,Neuroprotective effect against H2O2-induced toxicity (MTT cell viability),[4]; listed as 37,fully rescued

# Reference: paper PMC6630837 (Pharmaceuticals, 2019)
